Values joined by “and” are separate entries in the source; they are usually repeats but may differ in a detail not shown here. Identical values can stand only once.
How the values were obtained:
[1] = Excretion experiment in bile duct cannulated rats (bile); format: in vivo, SD rats; settings: single oral dose 100 mg/kg
Procedure: The cumulative excretion ratios of unchanged 25a in the urine, feces, and bile of rats after a single oral dose at 100 mg/kg were 0.14% ± 0.05%, 3.16% ± 0.96%, and 0.018% ± 0.006%, respectively (Figure 6 and Tables S5–S7). […] Further phenotyping and metabolite identification studies should be conducted to elucidate the major elimination forms of 25a in the future.
Four SD rats were adapted in metabolic cages for 3 days in advance and then administrated with 25a at 100 mg/kg orally. Feces and urine were collected and weighed at 0–6 h, 6–12 h, […], 24–36 h, 36–48 h, 48–60 h, and 60–72 h after administration. Parallelly, four SD rats received bile duct cannulation and were given a single dose of 25a at 100 mg/kg orally. Bile was collected and weighed at 0–2 h, 0–4 h, 0–6 h, 0–8 h, 0–10 h, 0–12 h, 0–24 h, 0–36 h, and 0–48 h after administration. All samples were stored at −80 °C until analysis.

UT-B = system: UT-B; parameters: method as in PMID 34601246; settings: rat; read-out: inhibitory effect on UT-B; cited from earlier work
[2] = Stability of 25a in rat plasma, urine, feces and bile under storage conditions; format: in vitro ADME
Procedure: The stability profiles of 25a in the given matrices stored under different conditions (4 °C for 24 h, 25 °C for 4 h, three freeze–thaw cycles, and −80 °C for 30 days) are shown in Table 5.
The accuracy and precision were evaluated by calculating the intraday and interday RE and CV of the QC samples. The RE should be within ±15% of the theoretical concentrations (3, 100, and 800 ng/mL). The CV values should be no more than 15%. For the LLOQ, the cutoff values of RE and CV were 100% ± 20% and <20%. The stability of 25a in the biological matrices (rat plasma, urine, fecal homogenate, and bile) was assessed at 3, 100, and 800 ng/mL (n = 6) under different storage conditions, which included storage at room temperature for 4 h, storage at 4 °C for 24 h, three freeze–thaw cycles, and storage at −80 °C for 30 days.

[3] = Plasma protein binding by equilibrium dialysis, rat plasma; format: in vitro ADME, SD rats
Procedure: The plasma protein binding (PPB) and blood plasma ratio (BPR) are crucial parameters influencing the drug distribution and elimination in plasma. The PPB profile of 25a was evaluated by equilibrium dialysis, a classic method to assess the interactions of small molecules with proteins. The PPB of 25a was tested at 50, 500, and 2500 ng/mL (Table 7). […] When considering the allometric scaling of PK parameters, the species difference of protein binding between humans and rats should be considered.
The plasma protein binding (PPB) ratio of 25a was assessed via equilibrium dialysis in SD rats and human plasma. Four hundred microliters of plasma containing 50, 500, or 2500 ng/mL 25a were loaded into the dialysis bags (plasma side), and the bags were placed into tubes containing 4 mL of the dialysis buffer (buffer side). The tubes were then rotated at approximately 100 rpm in a humidified incubator with 5% CO2 at 37 ± 1 °C for 5 h.
After the 5 h dialysis, aliquots of 50 μL samples were taken from both the buffer and the plasma sides. An equal volume of the opposite blank matrix (buffer or plasma) was added to each sample to reach a final volume of 100 μL with a volume ratio of plasma to dialysis buffer at 1:1 (v/v). All samples were further processed by adding 600 μL of stop solution (containing 10 ng/mL IS) to precipitate protein for LC–MS/MS analysis. The PPB ratio (%) was calculated by PPB% = 100% × (1 − Conc.buffer side/Conc.plasma side).

## CC(=O)Nc1ccc(NC(=O)c2ccc(C(C)=O)o2)cc1 [Compound 25a, N-(4-acetamidophenyl)-5-acetylfuran-2-carboxamide]
[1]; 0-2 h
  Accumulated Amount in bile: […]
  Concentration in bile: […]
  The cumulative excretion ratio in bile: […]
[1]; 0-4 h
  Accumulated Amount in bile: […]
  Concentration in bile: […]
  The cumulative excretion ratio in bile: […]
[1]; 0-6 h
  Concentration in bile: 161.3 ± 55.4 ng/mL
[1]; 0-8 h
  Concentration in bile: 169.5 ± 57.2 ng/mL
[1]; 0-10 h
  Concentration in bile: 156.8 ± 23.8 ng/mL
[1]; 0-12 h
  Accumulated Amount in bile: 2.888 ± 0.929 µg
  Concentration in bile: 147.3 ± 27.7 ng/mL
[1]; 0-24 h
  Accumulated Amount in bile: 3.664 ± 1.010 µg
  Concentration in bile: 83.5 ± 19.9 ng/mL
[1]; 0-36 h
  Concentration in bile: 40.7 ± 21.1 ng/mL
[1]; 0-48 h
  Accumulated Amount in bile: […]
  Concentration in bile: […]
  The cumulative excretion ratio in bile: […]
[1]; 100 mg/kg
  cumulative excretion ratio of unchanged 25a in bile: […]
UT-B
  IC50: […]
[2]; rat bile, HQC 800 ng/mL, 4 °C for 24 h
  Stability RE: −7.1%
[2]; rat bile, HQC 800 ng/mL, 25 °C for 4 h
  Stability RE: −7.8%
[2]; rat bile, HQC 800 ng/mL, three freeze–thaw cycles
  Stability RE: −12.2%
[2]; rat bile, HQC 800 ng/mL, −80 °C for 30 days
  Stability RE: −7.1%
[2]; rat bile, LQC 3 ng/mL, 4 °C for 24 h
  Stability RE: −14.7%
[2]; rat bile, LQC 3 ng/mL, 25 °C for 4 h
  Stability RE: −14.9%
[2]; rat bile, LQC 3 ng/mL, three freeze–thaw cycles
  Stability RE: −5.8%
[2]; rat bile, LQC 3 ng/mL, −80 °C for 30 days
  Stability RE: −2.1%
[2]; rat bile, MQC 100 ng/mL, 4 °C for 24 h
  Stability RE: −3.9%
[2]; rat bile, MQC 100 ng/mL, 25 °C for 4 h
  Stability RE: −5.1%
[2]; rat bile, MQC 100 ng/mL, three freeze–thaw cycles
  Stability RE: −5.2%
[2]; rat bile, MQC 100 ng/mL, −80 °C for 30 days
  Stability RE: −3.9%
[2]; rat feces, HQC 800 ng/mL, 4 °C for 24 h
  Stability RE: […]
[2]; rat feces, HQC 800 ng/mL, 25 °C for 4 h
  Stability RE: −2.4%
[2]; rat feces, HQC 800 ng/mL, three freeze–thaw cycles
  Stability RE: −9.1%
[2]; rat feces, HQC 800 ng/mL, −80 °C for 30 days
  Stability RE: […]
[2]; rat feces, LQC 3 ng/mL, 4 °C for 24 h
  Stability RE: 3.9%
[2]; rat feces, LQC 3 ng/mL, 25 °C for 4 h
  Stability RE: −5.2%
[2]; rat feces, LQC 3 ng/mL, three freeze–thaw cycles
  Stability RE: −5.2%
[2]; rat feces, LQC 3 ng/mL, −80 °C for 30 days
  Stability RE: […]
[2]; rat feces, MQC 100 ng/mL, 4 °C for 24 h
  Stability RE: […]
[2]; rat feces, MQC 100 ng/mL, 25 °C for 4 h
  Stability RE: 1.3%
[2]; rat feces, MQC 100 ng/mL, three freeze–thaw cycles
  Stability RE: −3.2%
[2]; rat feces, MQC 100 ng/mL, −80 °C for 30 days
  Stability RE: […]
[2]; rat plasma, HQC 800 ng/mL, 4 °C for 24 h
  Stability RE: −4.5%
[2]; rat plasma, HQC 800 ng/mL, 25 °C for 4 h
  Stability RE: −3.1%
[2]; rat plasma, HQC 800 ng/mL, three freeze–thaw cycles
  Stability RE: −7.6%
[2]; rat plasma, HQC 800 ng/mL, −80 °C for 30 days
  Stability RE: −4.5%
[2]; rat plasma, LQC 3 ng/mL, 4 °C for 24 h
  Stability RE: 2.8%
[2]; rat plasma, LQC 3 ng/mL, 25 °C for 4 h
  Stability RE: […]
[2]; rat plasma, LQC 3 ng/mL, three freeze–thaw cycles
  Stability RE: −3.6%
[2]; rat plasma, LQC 3 ng/mL, −80 °C for 30 days
  Stability RE: […]
[2]; rat plasma, MQC 100 ng/mL, 4 °C for 24 h
  Stability RE: 3.7%
[2]; rat plasma, MQC 100 ng/mL, 25 °C for 4 h
  Stability RE: −2.5%
[2]; rat plasma, MQC 100 ng/mL, three freeze–thaw cycles
  Stability RE: −4.0%
[2]; rat plasma, MQC 100 ng/mL, −80 °C for 30 days
  Stability RE: 3.7%
[2]; rat plasma, urine, feces, bile, 4 °C 24 h, 25 °C 4 h, three freeze–thaw cycles, −80 °C 30 days
  stability during sample preparation and storage: […]
[2]; rat urine, HQC 800 ng/mL, 4 °C for 24 h
  Stability RE: […]
[2]; rat urine, HQC 800 ng/mL, 25 °C for 4 h
  Stability RE: […]
[2]; rat urine, HQC 800 ng/mL, three freeze–thaw cycles
  Stability RE: […]
[2]; rat urine, HQC 800 ng/mL, −80 °C for 30 days
  Stability RE: […]
[2]; rat urine, LQC 3 ng/mL, 4 °C for 24 h
  Stability RE: −8.3%
[2]; rat urine, LQC 3 ng/mL, 25 °C for 4 h
  Stability RE: 3.2%
[2]; rat urine, LQC 3 ng/mL, three freeze–thaw cycles
  Stability RE: 5.8%
[2]; rat urine, LQC 3 ng/mL, −80 °C for 30 days
  Stability RE: 6.2%
[2]; rat urine, MQC 100 ng/mL, 4 °C for 24 h
  Stability RE: 2.5%
[2]; rat urine, MQC 100 ng/mL, 25 °C for 4 h
  Stability RE: […]
[2]; rat urine, MQC 100 ng/mL, three freeze–thaw cycles
  Stability RE: −5.2%
[2]; rat urine, MQC 100 ng/mL, −80 °C for 30 days
  Stability RE: 2.5%
[3]; SD, rat plasma, 50 ng/mL
  fraction unbound at 5 h, 50 ng/mL: 0.368
[3]; SD, rat plasma, 500 ng/mL
  fraction unbound at 5 h, 500 ng/mL: 0.386
[3]; SD, rat plasma, 2500 ng/mL
  fraction unbound at 5 h, 2500 ng/mL: 0.355
[3]; Sprague-Dawley, rat plasma, 50, 500, 2500 ng/mL, read-out: mean plasma protein binding (PPB) (converted)
  fraction unbound at 5 h: ~0.4

— paper PMC9027532, “Preclinical Pharmacokinetic Studies of a Novel Diuretic Inhibiting Urea Transporters” (Molecules, 2022)
